Experimental data taken from ChEMBL document CHEMBL3526097, “Preclinical disposition of GDC-0973 and prospective and retrospective analysis of human dose and efficacy predictions” (Drug Metab Dispos, 2012).

Key:
[1] = Tmax in Beagle dog at 3 mg/kg, po by LC-MS/MS analysis; type: ADME, organism-based, Canis lupus familiaris; parameters: dose 3 mg/kg, route oral; conditions: in vivo
[2] = Oral bioavailability in nu/nu mouse at 3 mg/kg by LC-MS/MS analysis; type: ADME, organism-based; conditions: in vivo
[3] = Ratio of unbound drug level in brain to plasma in mouse at 3 mg/kg after 2 hrs; type: ADME, organism-based; parameters: dose 3 mg/kg; conditions: read-out: BPR
[4] = Oral bioavailability in Beagle dog at 3 mg/kg by LC-MS/MS analysis; type: ADME, organism-based, Canis lupus familiaris; conditions: in vivo
[5] = Ratio of drug level in tumor to plasma in mouse xenografted with human COLO205 cells at 3 mg/kg after 2 hrs; type: ADME, organism-based, COLO 205; parameters: dose 3 mg/kg
[6] = biological target: ATP-dependent translocase ABCB1 (Homo sapiens, UniProt P08183); assay: Inhibition of MDR1 (unknown origin) at 25 uM; type: ADME
[7] = Volume of distribution at steady state in Sprague-Dawley rat at 3 mg/kg, iv by LC-MS/MS analysis; type: ADME, organism-based; parameters: dose 3 mg/kg, route intravenous; conditions: in vivo, read-out: Vdss
Mus musculus = assay: AUC (infinity) in nu/nu mouse at 1 mg/kg, iv by LC-MS/MS analysis; type: ADME, organism-based, Plasma; parameters: time infinity, dose 1 mg/kg, route intravenous; conditions: in vivo
[8] = Apparent permeability from apical to basolateral side of MDCK1 cells at 10 uM after 60 mins; type: ADME, cell-based, Canis lupus familiaris; conditions: dog, MDCK
[9] = Volume of distribution at steady state in nu/nu mouse at 1 mg/kg, iv by LC-MS/MS analysis; type: ADME, organism-based; parameters: dose 1 mg/kg, route intravenous; conditions: in vivo, read-out: Vdss
[10] = Cmax in Sprague-Dawley rat at 3 mg/kg, po by LC-MS/MS analysis; type: ADME, organism-based; parameters: dose 3 mg/kg, route oral; conditions: in vivo
COLO 205 = assay: Antitumor activity against human COLO205 cells expressing B-raf V600E mutant xenografted in po dosed mouse assessed as inhibition of tumor growth; type: functional, organism-based
[11] = Drug uptake in tumor of mouse xenografted with human COLO205 cells at 3 mg/kg after 2 hrs; type: ADME, organism-based, Neoplasm, COLO 205; parameters: dose 3 mg/kg; conditions: read-out: Drug uptake
[12] = Tmax in Sprague-Dawley rat at 3 mg/kg, po by LC-MS/MS analysis; type: ADME, organism-based; parameters: dose 3 mg/kg, route oral; conditions: in vivo
[13] = Volume of distribution at steady state in Beagle dog at 3 mg/kg, iv by LC-MS/MS analysis; type: ADME, organism-based, Canis lupus familiaris; parameters: dose 3 mg/kg, route intravenous; conditions: in vivo, read-out: Vdss
[14] = Volume of distribution at steady state in cynomolgus monkey at 3 mg/kg, iv by LC-MS/MS analysis; type: ADME, organism-based, Macaca fascicularis; parameters: dose 3 mg/kg, route intravenous; conditions: in vivo, read-out: Vdss
[15] = Efflux ratio of permeability from […] side in MDCK1 cells at 10 uM after 60 mins; type: ADME, cell-based, Canis lupus familiaris; conditions: dog, MDCK
[16] = Terminal half life in nu/nu mouse at 1 mg/kg, iv by LC-MS/MS analysis; type: ADME, organism-based; parameters: dose 1 mg/kg, route intravenous; conditions: in vivo, read-out: beta t1/2 (converted)
[17] = Cmax in nu/nu mouse at 3 mg/kg, po by LC-MS/MS analysis; type: ADME, organism-based; parameters: dose 3 mg/kg, route oral; conditions: in vivo
[18] = AUC (infinity) in Sprague-Dawley rat at 3 mg/kg, po by LC-MS/MS analysis; type: ADME, organism-based; parameters: time infinity, dose 3 mg/kg, route oral; conditions: plasma
[19] = Oral bioavailability in Sprague-Dawley rat at 3 mg/kg by LC-MS/MS analysis; type: ADME, organism-based; conditions: in vivo
[20] = Tmax in cynomolgus monkey at 3 mg/kg, po by LC-MS/MS analysis; type: ADME, organism-based, Macaca fascicularis; parameters: dose 3 mg/kg, route oral; conditions: in vivo
Brain [21] = assay: Unbound AUC in mouse brain; type: ADME, tissue-based; conditions: in vivo
Brain [22] = assay: Unbound concentration in mouse brain at 3 mg/kg after 2 hrs; type: ADME, organism-based; parameters: dose 3 mg/kg; conditions: in vivo
[23] = Tmax in nu/nu mouse at 3 mg/kg, po by LC-MS/MS analysis; type: ADME, organism-based; parameters: dose 3 mg/kg, route oral; conditions: in vivo
Cynomolgus monkey = assay: AUC (infinity) in cynomolgus monkey at 3 mg/kg, iv by LC-MS/MS analysis; type: ADME, organism-based, Macaca fascicularis, Plasma; parameters: time infinity, dose 3 mg/kg, route intravenous; conditions: in vivo
MDR1 [24] = assay: Efflux ratio of permeability from […] side in MDCK1 cells expressing MDR1 at 25 uM after 2 hrs by LC-MS/MS analysis; type: ADME, cell-based, Canis lupus familiaris; conditions: dog, MDCK-MDR1
[25] = Oral bioavailability in cynomolgus monkey at 3 mg/kg by LC-MS/MS analysis; type: ADME, organism-based, Macaca fascicularis; conditions: in vivo
[26] = Terminal half life in cynomolgus monkey at 3 mg/kg, iv by LC-MS/MS analysis; type: ADME, organism-based, Macaca fascicularis; parameters: dose 3 mg/kg, route intravenous; conditions: in vivo, read-out: beta t1/2 (converted)
[27] = Terminal half life in Sprague-Dawley rat at 3 mg/kg, iv by LC-MS/MS analysis; type: ADME, organism-based; parameters: dose 3 mg/kg, route intravenous; conditions: in vivo, read-out: beta t1/2 (converted)
[28] = Terminal half life in Beagle dog at 3 mg/kg, iv by LC-MS/MS analysis; type: ADME, organism-based, Canis lupus familiaris; parameters: dose 3 mg/kg, route intravenous; conditions: in vivo, read-out: beta t1/2 (converted)
[29] = Plasma clearance in Sprague-Dawley rat at 3 mg/kg, iv by LC-MS/MS analysis; type: ADME, organism-based; parameters: dose 3 mg/kg, route intravenous
[30] = Apparent permeability from basolateral to apical side of MDCK1 cells at 10 uM after 60 mins; type: ADME, cell-based, Canis lupus familiaris; conditions: dog, MDCK
MDR1 [31] = assay: Apparent permeability from basolateral to apical side of MDCK1 cells expressing MDR1 at 25 uM after 2 hrs by LC-MS/MS analysis; type: ADME, cell-based, Canis lupus familiaris; conditions: dog, MDCK-MDR1
Plasma = assay: Fraction unbound in mouse plasma at 3 mg/kg after 2 hrs; type: ADME, organism-based; parameters: dose 3 mg/kg; conditions: in vivo
[32] = Antiproliferative activity against human COLO205 cells expressing B-raf V600E mutant; type: functional, cell-based; conditions: COLO 205
[33] = Fraction unbound in mouse brain; type: ADME, tissue-based
[34] = Plasma clearance in Beagle dog at 3 mg/kg, iv by LC-MS/MS analysis; type: ADME, organism-based, Canis lupus familiaris; parameters: dose 3 mg/kg, route intravenous
Rattus norvegicus = assay: AUC (infinity) in Sprague-Dawley rat at 3 mg/kg, iv by LC-MS/MS analysis; type: ADME, organism-based, Plasma; parameters: dose 3 mg/kg, route intravenous, time infinity; conditions: in vivo
[35] = Cmax in cynomolgus monkey at 3 mg/kg, po by LC-MS/MS analysis; type: ADME, organism-based, Macaca fascicularis; parameters: dose 3 mg/kg, route oral; conditions: in vivo
[36] = AUC (infinity) in cynomolgus monkey at 3 mg/kg, po by LC-MS/MS analysis; type: ADME, organism-based, Macaca fascicularis; parameters: time infinity, dose 3 mg/kg, route oral; conditions: plasma
[37] = biological target: Dual specificity mitogen-activated protein kinase kinase 1 (Homo sapiens, UniProt Q02750); assay: Inhibition of MEK1 (unknown origin)
[38] = Ratio of drug level in brain to plasma in mouse at 3 mg/kg after 2 hrs; type: ADME, organism-based; parameters: dose 3 mg/kg; conditions: read-out: BPR
[39] = AUC (infinity) in nu/nu mouse at 3 mg/kg, po by LC-MS/MS analysis; type: ADME, organism-based; parameters: time infinity, dose 3 mg/kg, route oral; conditions: plasma
Canis familiaris = assay: AUC (infinity) in Beagle dog at 3 mg/kg, iv by LC-MS/MS analysis; type: ADME, organism-based, Canis lupus familiaris, Plasma; parameters: dose 3 mg/kg, route intravenous, time infinity; conditions: in vivo

Chain of Dual specificity mitogen-activated protein kinase kinase 1 (Q02750 whole entry): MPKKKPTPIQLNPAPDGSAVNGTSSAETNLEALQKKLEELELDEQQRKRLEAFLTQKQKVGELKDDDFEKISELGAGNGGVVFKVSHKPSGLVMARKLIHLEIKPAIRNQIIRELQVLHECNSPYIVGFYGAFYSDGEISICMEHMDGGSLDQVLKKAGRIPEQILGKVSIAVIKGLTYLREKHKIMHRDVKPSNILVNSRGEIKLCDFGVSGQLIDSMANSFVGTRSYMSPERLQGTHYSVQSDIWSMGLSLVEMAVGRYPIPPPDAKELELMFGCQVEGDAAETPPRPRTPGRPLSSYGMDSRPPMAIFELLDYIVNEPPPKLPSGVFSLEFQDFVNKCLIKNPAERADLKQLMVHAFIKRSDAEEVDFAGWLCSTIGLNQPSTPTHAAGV
Chain of ATP-dependent translocase ABCB1 (P08183 whole entry): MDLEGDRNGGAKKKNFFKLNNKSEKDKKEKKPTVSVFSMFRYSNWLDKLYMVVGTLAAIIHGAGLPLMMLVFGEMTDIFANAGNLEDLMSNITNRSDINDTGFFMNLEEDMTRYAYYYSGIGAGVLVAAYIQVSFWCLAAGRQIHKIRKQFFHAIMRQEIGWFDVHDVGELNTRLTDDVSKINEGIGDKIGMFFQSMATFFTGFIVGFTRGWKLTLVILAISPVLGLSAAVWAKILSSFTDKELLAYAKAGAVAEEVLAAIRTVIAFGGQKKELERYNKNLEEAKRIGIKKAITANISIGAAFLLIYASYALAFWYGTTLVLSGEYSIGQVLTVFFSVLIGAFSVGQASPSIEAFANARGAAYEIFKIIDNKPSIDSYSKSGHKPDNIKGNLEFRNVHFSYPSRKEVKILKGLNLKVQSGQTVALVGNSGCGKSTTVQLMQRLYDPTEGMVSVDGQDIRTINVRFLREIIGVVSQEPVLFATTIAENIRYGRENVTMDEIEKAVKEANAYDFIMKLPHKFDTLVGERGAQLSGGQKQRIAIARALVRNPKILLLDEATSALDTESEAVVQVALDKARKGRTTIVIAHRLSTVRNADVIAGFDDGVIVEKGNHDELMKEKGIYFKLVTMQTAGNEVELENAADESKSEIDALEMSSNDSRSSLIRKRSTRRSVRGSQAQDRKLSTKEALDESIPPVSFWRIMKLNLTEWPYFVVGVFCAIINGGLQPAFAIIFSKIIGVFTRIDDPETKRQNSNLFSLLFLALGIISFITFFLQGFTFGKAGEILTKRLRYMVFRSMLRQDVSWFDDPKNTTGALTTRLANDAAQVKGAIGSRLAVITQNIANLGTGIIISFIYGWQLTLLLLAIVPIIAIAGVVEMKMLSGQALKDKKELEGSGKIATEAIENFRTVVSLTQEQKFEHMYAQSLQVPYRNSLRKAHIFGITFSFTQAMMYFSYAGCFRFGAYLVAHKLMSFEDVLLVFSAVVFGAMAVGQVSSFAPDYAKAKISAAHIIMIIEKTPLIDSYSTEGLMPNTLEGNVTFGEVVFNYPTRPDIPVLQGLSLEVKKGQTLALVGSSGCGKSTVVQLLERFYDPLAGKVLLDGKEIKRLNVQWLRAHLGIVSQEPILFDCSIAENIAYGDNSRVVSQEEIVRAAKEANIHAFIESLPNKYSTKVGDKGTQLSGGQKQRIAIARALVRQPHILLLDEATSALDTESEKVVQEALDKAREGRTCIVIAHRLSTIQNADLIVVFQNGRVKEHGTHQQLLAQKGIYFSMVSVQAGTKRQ

`O=C(c1ccc(F)c(F)c1Nc1ccc(I)cc1F)N1CC(O)([C@@H]2CCCCN2)C1` [COBIMETINIB] showed a Tmax [1] of 2.67 h, a bioavailability [2] of 53.9% and a Kp uu at 2 h [3] of 0.018. For the same compound, the bioavailability [4] was 69.1%, the Kp at 2 h [5] was 9 and the “inhibition (INH)” value [6] was “Not Active”. It also gave a Vd [7] of 34.6 L/kg, an AUC (Mus musculus) of 935 ng·h/mL and a Papp A→B at 1 h, 10 µM [8] of 1.39 ×10⁻⁶ cm/s. The Vd [9] was 9.4 L/kg, the Cmax [10] was 193 ng/mL and the TGI (COLO 205) was “Dose-dependent effect”. The concentration at 2 h [11] was 1560 nM, the Tmax [12] was 3.5 h and the Vd [13] was 3.99 L/kg. The Vd [14] was 29.6 L/kg, the efflux ratio at 1 h, 10 µM [15] was 3 and the half-life [16] was 3.92 h. For the same compound, the Cmax [17] was 184 ng/mL, the AUC(0-inf) [18] was 1590 ng·h/mL and the bioavailability [19] was 69%. For the same compound, the Tmax [20] was 2 h, the fAUC (Brain [21]) was 3 nM·h and the Concentration (Brain [22]) was 0.1 nM. The Tmax [23] was 0.25 h, the AUC (Cynomolgus monkey) was 3340 ng·h/mL and the efflux ratio at 2 h, 25 µM (MDR1 [24]) was 40. It also gave a bioavailability [25] of 19.6%, a half-life [26] of 10.3 h and a half-life [27] of 13.3 h. It also gave a half-life [28] of 9.19 h, a clearance [29] of 37.8 mL/min/kg and a Papp B→A at 1 h, 10 µM [30] of 4 ×10⁻⁶ cm/s. The Papp B→A at 2 h, 25 µM (MDR1 [31]) was 35.4 ×10⁻⁶ cm/s, the “Cp(f)” value (Plasma) was 5.7 nM and the IC50 [32] was 8 nM. For the same compound, the fraction unbound [33] was 0.0012, the clearance [34] was 5.53 mL/min/kg and the AUC (Rattus norvegicus) was 2320 ng·h/mL. For the same compound, the Cmax [35] was 50 ng/mL, the AUC(0-inf) [36] was 640 ng·h/mL and the IC50 [37] was 4.2 nM. The Kp at 2 h [38] was 0.5, the AUC(0-inf) [39] was 1510 ng·h/mL and the AUC (Canis familiaris) was 17100 ng·h/mL.
